Data taken from patent publication US4497811A, “1-Oxadethiacephalosporin compound and antibacterial agent containing the _same” (priority 1983, dated 1985).
Where a name gives a salt, the structure may show the parent alone.

Columns and labels:
[1] = system: gram-positive and gram-negative bacteria; assay: Antibacterial spectra in vitro (MIC), summary in words; assay type: cell-based; settings: compared to cefroxadine
Text: Minimum inhibitory concentrations (MIC.) (mcg/ml) as determined by serial
dilution method on agar plates

[2] = system: Escherichia coli No. 29; assay: Curative effect by oral administration in mice infected intraperitoneally with Escherichia coli No. 29 (survival over 7 days); assay type: in vivo; settings: for number of surviving mice: three mice in each group, 7 days
Text: Thus, some tests were made to evaluate the curative effects of the new compound of this invention in therapeutic treatment of bacterial infections when the new compound was orally given to mice (average body weight 20 g) which had been infected with Escherichia coli No. 29. In these tests for therapeutic treatment of the bacterial infection, mice (three mice in each group) were inoculated intraperitoneally with Escherichia coli No. 29 at an inoculmn dose of 3.25×10^5 CFU/mouse and then immediately treated by oral administration of the test compound. For the subsequent 7 days, the mice were kept under observation and the number of surviving mice was counted.

Compound | antibacterial activity against resistant strains of bacteria [1] | antibacterial spectrum (range) [1] | number of surviving mice ([2]; 0.1 mg/mouse) [mice] | number of surviving mice ([2]; 1 mg/mouse) [mice] | number of surviving mice ([2]; 5 mg/mouse) [mice] | number of surviving mice ([2]; 10 mg/mouse) [mice] | curative effects in therapeutic treatment of the bacterial infection in vivo ([2]; mice infected with Escherichia coli No. 29)
CSC1=C(C(=O)O)N2C(=O)C(NC(=O)Cc3cccs3)C2OC1 (stereo not shown) [Example 1(b), 7-(2-thienylacetamido)-1-oxa-1-dethia-3-methylthio-3-cephem-4-carboxylic acid] | effective and higher antibacterial activity against resistant strains of bacteria than cefroxadine | wider range of the antibacterial spectrum than cefroxadine |  |  |  |  | 
CSC1=C(C(=O)O)N2C(=O)C(NC(=O)Cc3ccsc3)C2OC1 (stereo not shown) [Example 2(b), 7-(3-thienylacetamido)-1-oxa-1-dethia-3-methylthio-3-cephem-4-carboxylic acid] | effective and higher antibacterial activity against resistant strains of bacteria than cefroxadine | wider range of the antibacterial spectrum than cefroxadine |  |  |  |  | 
CSC1=C(C(=O)O)N2C(=O)C(NC(=O)C(C(=O)O)c3cccs3)C2OC1 (stereo not shown) [Example 3(b), 7-[2-(2-thienyl)-2-carboxyacetamido]-1-oxa-1-dethia-3-methylthio-3-cephem-4-carboxylic acid] | effective and higher antibacterial activity against resistant strains of bacteria than cefroxadine | wider range of the antibacterial spectrum than cefroxadine |  |  |  |  | 
CSC1=C(C(=O)O)N2C(=O)C(NC(=O)C(C(=O)O)c3ccsc3)C2OC1 (stereo not shown) [Example 4(b), 7-[2-(3-thienyl)-2-carboxyacetamido]-1-oxa-1-dethia-3-methylthio-3-cephem-4-carboxylic acid] | effective and higher antibacterial activity against resistant strains of bacteria than cefroxadine | wider range of the antibacterial spectrum than cefroxadine |  |  |  |  | 
CO/N=C(\C(=O)NC1C(=O)N2C(C(=O)O)=C(SC)COC12)c1csc(N)n1 (stereo not drawn) [Example 6(b), 7-[2-(2-amino-4-thiazolyl)-2-methoxyiminoacetamido]-1-oxa-1-dethia-3-methylthio-3-cephem-4-carboxylic acid trifluoroacetate (syn-isomer)] |  |  | 1 | 3 | 3 | 3 | better curative effects in therapeutic treatment of the bacterial infection in vivo
